13 compounds from PubChem BioAssay (NCI) can be followed below.

Some test systems named below: HOP-92 NSCLC; MCF7 breast; SK-MEL-5 melanoma; MDA-N; SNB-19 CNS; OVCAR-5 ovarian; IGROV1 ovarian; RPMI-8226 leukemia; MDA-MB-231 breast; SK-MEL-28 melanoma.
Assay in all cases: NCI anticancer screen, dose series, 48 h

Molecules are shown by their SMILES.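 In this assay, cells in 96-well plates receive the compound at five concentrations for 48 hours. Endpoints are linearly interpolated between the surrounding concentrations. At the TGI there is no net growth.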

As for `O=C(CCc1cc(O)cc(O)c1)NCCc1ccc(O)c(O)c1`, the TGI in the assay on HOP-92 NSCLC, in the assay on MCF7 breast, with SK-MEL-5 melanoma, in the assay with MDA-N, with SNB-19 CNS and in the assay on OVCAR-5 ovarian was above 100 µM each time. Also, the TGI with IGROV1 ovarian, in the assay with RPMI-8226 leukemia, in the assay with MDA-MB-231 breast and in the assay with SK-MEL-28 melanoma was above 100 µM in each case.
As to `CCCCCCC(CCl)c1sc(-c2csc(CCNC(=O)OC(C)(C)C)n2)nc1C(=O)OC` (stereo not given), the TGI was 69.7 µM with HOP-92 NSCLC; 29.5 µM in the assay with MCF7 breast; 16.1 µM with SK-MEL-5 melanoma; 87.9 µM in the assay on MDA-N; above 100 µM in the assay with SNB-19 CNS; above 100 µM in the assay on OVCAR-5 ovarian. Besides, the TGI in the assay with IGROV1 ovarian, with RPMI-8226 leukemia, in the assay with MDA-MB-231 breast and in the assay on SK-MEL-28 melanoma was above 100 µM in each case.
As for `CC(/C=N/NC1=NCCCCN1)=N\NC1=NCCCCN1`, the TGI in the assay with HOP-92 NSCLC, with MCF7 breast, with SK-MEL-5 melanoma, in the assay on MDA-N, in the assay with SNB-19 CNS and in the assay with OVCAR-5 ovarian was above 100 µM each time. Also, the TGI in the assay on IGROV1 ovarian, with RPMI-8226 leukemia, with MDA-MB-231 breast and in the assay with SK-MEL-28 melanoma was above 100 µM each time.
For the compound `O=C(c1ccc(Cl)cc1)N1N=C(c2ccc(Cl)cc2)CC1(O)c1cc(F)c(Cl)cc1Cl` (stereo not given), the TGI is 51.3 µM in the assay on HOP-92 NSCLC; above 100 µM in the assay on MCF7 breast; above 100 µM in the assay on SK-MEL-5 melanoma; 28.5 µM in the assay with MDA-N; above 100 µM in the assay with SNB-19 CNS; above 100 µM in the assay with OVCAR-5 ovarian. The TGI in the assay on IGROV1 ovarian was above 100 µM; with RPMI-8226 leukemia it was 40.3 µM; in the assay on MDA-MB-231 breast, above 100 µM; in the assay with SK-MEL-28 melanoma it was above 100 µM.
For the compound `O=C(NN=C1CCCCC1)Nc1ccccc1Cl`, the TGI with HOP-92 NSCLC was 94.3 µM; with MCF7 breast, above 100 µM; in the assay on SK-MEL-5 melanoma, above 100 µM; in the assay with MDA-N, 39 µM; with SNB-19 CNS, above 100 µM; with OVCAR-5 ovarian, above 100 µM. For the same compound, the TGI in the assay with IGROV1 ovarian, in the assay on RPMI-8226 leukemia, in the assay on MDA-MB-231 breast and in the assay with SK-MEL-28 melanoma was above 100 µM each time.
For `C1OCN2c3nonc3N3COCN4c5nonc5N1C2C43` (stereo not given), the TGI with HOP-92 NSCLC, with MCF7 breast, with SK-MEL-5 melanoma, in the assay with MDA-N, with SNB-19 CNS and in the assay on OVCAR-5 ovarian was above 100 µM throughout. For the same compound, the TGI in the assay on IGROV1 ovarian, in the assay on RPMI-8226 leukemia, in the assay with MDA-MB-231 breast and with SK-MEL-28 melanoma was above 100 µM throughout.
As for `Cc1ccc(S(=O)(=O)n2cc(-c3cnc(N)c(Br)n3)c3ccccc32)cc1`, the TGI in the assay with HOP-92 NSCLC is above 27.5 µM; in the assay with MCF7 breast, above 45.7 µM; in the assay on SK-MEL-5 melanoma, 41.4 µM; with MDA-N, 0.836 µM; with SNB-19 CNS, above 46.1 µM; in the assay on OVCAR-5 ovarian, above 77.1 µM. Moreover, the TGI with IGROV1 ovarian was 5.71 µM; in the assay with RPMI-8226 leukemia, 49.6 µM; in the assay with MDA-MB-231 breast, above 24 µM; with SK-MEL-28 melanoma, above 57 µM.
Take `CCCCCC(/C=C/[C@@H]1CC(=O)C[C@H]1O[Si](C)(C)C(C)(C)C)OCOCCOC` (stereo not given in full): the TGI was 6.03 µM in the assay with HOP-92 NSCLC; above 43.5 µM with MCF7 breast; 9.33 µM in the assay on SK-MEL-5 melanoma; 9.44 µM in the assay on MDA-N; 12.9 µM in the assay on SNB-19 CNS; 28.8 µM with OVCAR-5 ovarian. The TGI with IGROV1 ovarian stood at 9.48 µM; in the assay on RPMI-8226 leukemia, 6.42 µM; in the assay on MDA-MB-231 breast it was 14.7 µM; with SK-MEL-28 melanoma it was 10.5 µM.
Consider `Cc1ccc([N+](=O)[O-])cc1S(=O)(=O)Nc1ccc(C2=NN(c3ccc([N+](=O)[O-])cc3[N+](=O)[O-])C(c3ccccc3O)C2)cc1` (stereo not given), for which the TGI is above 100 µM with HOP-92 NSCLC; above 100 µM with MCF7 breast; 61.1 µM with SK-MEL-5 melanoma; above 100 µM with MDA-N; above 100 µM with SNB-19 CNS; above 100 µM with OVCAR-5 ovarian. Besides, the TGI in the assay on IGROV1 ovarian is above 100 µM; with RPMI-8226 leukemia it was above 100 µM; in the assay on MDA-MB-231 breast, 86.6 µM; with SK-MEL-28 melanoma, above 100 µM.
In the case of `N#CC1N(C(=O)c2ccc(F)cc2)c2ccccc2N1C(=O)c1ccc(F)cc1`, the TGI in the assay on HOP-92 NSCLC is 68.8 µM; in the assay with MCF7 breast it was above 100 µM; in the assay with SK-MEL-5 melanoma, 63.2 µM; with MDA-N it was above 100 µM; in the assay on SNB-19 CNS, above 100 µM; in the assay with OVCAR-5 ovarian it was above 100 µM. The TGI in the assay on IGROV1 ovarian was above 100 µM; with RPMI-8226 leukemia it was 75.4 µM; in the assay with MDA-MB-231 breast, above 100 µM; in the assay on SK-MEL-28 melanoma it was above 100 µM.
As to `COc1ccc(N2CCN(c3ccc4c(c3)NCC(=O)N4)CC2)cc1`, the TGI in the assay with HOP-92 NSCLC is 63.5 µM; in the assay with MCF7 breast, above 100 µM; with SK-MEL-5 melanoma it was above 100 µM; with MDA-N, above 100 µM; with SNB-19 CNS, above 100 µM; in the assay on OVCAR-5 ovarian, above 100 µM. In addition, the TGI in the assay on IGROV1 ovarian is above 100 µM; in the assay on RPMI-8226 leukemia it was 67.5 µM; in the assay on MDA-MB-231 breast, above 100 µM; in the assay with SK-MEL-28 melanoma, above 100 µM.
As for `O=C(NCCO)c1c(O)c2ccccc2[nH]c1=O`, the TGI in the assay on HOP-92 NSCLC, with MCF7 breast, in the assay on SK-MEL-5 melanoma, in the assay with MDA-N, in the assay with SNB-19 CNS and in the assay on OVCAR-5 ovarian was above 100 µM throughout. For the same compound, the TGI in the assay on IGROV1 ovarian, in the assay on RPMI-8226 leukemia, in the assay on MDA-MB-231 breast and in the assay with SK-MEL-28 melanoma was above 100 µM throughout.
On to `CC(C)(C)OC(=O)NC(CCCCNC(=O)OCc1ccccc1)C(=O)NC(CCCCNC(=O)OCc1ccccc1)C(=O)ON1C(=O)CCC1=O` (stereo not given), for which the TGI with HOP-92 NSCLC, with MCF7 breast, with SK-MEL-5 melanoma, in the assay with MDA-N, in the assay with SNB-19 CNS and in the assay with OVCAR-5 ovarian was above 100 µM each time. For the same compound, the TGI in the assay on IGROV1 ovarian, in the assay on RPMI-8226 leukemia, in the assay on MDA-MB-231 breast and with SK-MEL-28 melanoma was above 100 µM throughout.
